Test results reported in patent publication US11230526B1, “Cylcoalkenyl derivatives useful as agonists of the GPR120 and/or GPR40 receptors” (Janssen Pharmaceutica NV, priority 2018, dated 2022).
“And” between values parts separate entries of the source, which are not always exact repeats. Identical values can stand only once.

Tests used:
Human GPR120 short form = biological target: T1, Human GPR120 short form (Homo sapiens, UniProt Q5NUL3); test: Human GPR120 calcium flux assay, Procedure Calcium B (4200 cells/well); assay type: cell-based
T1 construct: expressed in transfected cells
T1 sequence (Q5NUL3 1-361): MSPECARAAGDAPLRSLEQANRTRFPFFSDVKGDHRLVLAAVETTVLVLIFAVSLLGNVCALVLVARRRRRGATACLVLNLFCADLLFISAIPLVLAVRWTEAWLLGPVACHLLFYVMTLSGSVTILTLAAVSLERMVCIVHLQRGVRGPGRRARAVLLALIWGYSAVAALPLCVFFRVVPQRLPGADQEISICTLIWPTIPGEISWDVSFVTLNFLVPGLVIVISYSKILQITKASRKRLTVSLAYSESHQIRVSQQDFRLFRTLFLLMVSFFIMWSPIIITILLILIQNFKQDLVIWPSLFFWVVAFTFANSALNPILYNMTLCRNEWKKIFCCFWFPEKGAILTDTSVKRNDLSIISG
Summary of the method: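 Agonist EC50 came from a four-parameter fit of RFU (Fmax−Fmin) read over 300 s on FLIPR. Cells were HEK293 stably transfected with human GPR120 (NM_001195755.1) at 4200 per well, serum-starved 1 h and loaded with Fluo-4 NW dye with probenecid before ligand addition.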

[1] = biological target: T2, short form of the GPR120 receptor (Homo sapiens, UniProt Q5NUL3); test: Human GPR120 DiscoveRx PathHunter Beta-Arrestin assay, Procedure β-arrestin B; assay type: cell-based
T2 construct: host or cells: PathHunter CHO-K1 GPR120S β-Arrestin Cell Line
T2 sequence (P32121 whole entry partner, one chain of several): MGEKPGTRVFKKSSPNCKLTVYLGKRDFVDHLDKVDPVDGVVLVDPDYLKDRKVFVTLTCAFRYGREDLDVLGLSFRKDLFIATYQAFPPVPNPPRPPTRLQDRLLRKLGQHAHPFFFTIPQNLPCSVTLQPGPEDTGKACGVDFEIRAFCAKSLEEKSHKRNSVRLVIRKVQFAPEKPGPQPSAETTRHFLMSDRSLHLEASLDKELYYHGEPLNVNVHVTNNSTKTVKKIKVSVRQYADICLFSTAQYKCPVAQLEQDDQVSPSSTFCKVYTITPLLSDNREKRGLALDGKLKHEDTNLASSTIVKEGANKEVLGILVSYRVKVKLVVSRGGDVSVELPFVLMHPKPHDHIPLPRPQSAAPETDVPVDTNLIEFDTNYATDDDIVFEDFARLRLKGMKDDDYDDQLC

| EC50 (Human GPR120 short form) | EC50 [1] [nM] | SMILES |
| --- | --- | --- |
| 233 nM | 588 | Cc1c(CCC(=O)O)ccc(OCC2=C(c3cncs3)CCC2)c1C [Compound 88, 3-[2,3-dimethyl-4-[(2-thiazol-5-ylcyclopenten-1-yl)methoxy]phenyl]Propanoic Acid] |
| 643 nM | 587 | Cc1ccc(C2=C(COc3ccc(CCC(=O)O)c(F)c3F)CCC2)cc1N [Compound 93, 3-(4-((2-(3-amino-4-methylphenyl)cyclopent-1-en-1-yl)methoxy)-2,3-difluorophenyl)Propanoic Acid] |
| 23 nM | 47 | Cc1ccc(C2=C(COc3ccc(CCC(=O)O)c(F)c3F)CCC2)cc1 [Compound 94, 3-(2,3-difluoro-4-((2-(p-tolyl)cyclopent-1-en-1-yl)methoxy)phenyl)Propanoic Acid] |
| 32 nM | 76 | Cc1ccc(C2=C(COc3c(F)cc(CCC(=O)O)cc3F)CCC2)cc1 [Compound 95, 3-(3,5-difluoro-4-((2-(p-tolyl)cyclopent-1-en-1-yl)methoxy)phenyl)Propanoic Acid] |
| 134 nM | 365 | Cc1ccc(C2=C(COc3ccc(CCC(=O)O)cc3C)CCC2)cn1 [Compound 102, 3-(3-methyl-4-((2-(6-methylpyridin-3-yl)cyclopent-1-en-1-yl)methoxy)phenyl)Propanoic Acid] |
| 183 nM | 445 | Cc1c(CCC(=O)O)ccc(OCC2=C(c3ncccn3)CCC2)c1C [Compound 105, 3-[2,3-dimethyl-4-[(2-pyrimidin-2-ylcyclopenten-1-yl)methoxy]phenyl]Propanoic Acid] |
| 567 nM | 853 | Cc1ccc(C2=C(COc3ccc(CCC(=O)O)c(C)c3C)CCC2)cc1C [Compound 106, 3-(4-((2-(3,4-dimethylphenyl)cyclopent-1-en-1-yl)methoxy)-2,3-dimethylphenyl)Propanoic Acid] |
| 233 nM | 807 | Cc1c(CCC(=O)O)ccc(OCC2=C(c3cccnc3)CCC2)c1C [Compound 108, 3-[2,3-dimethyl-4-[[2-(3-pyridyl)cyclopenten-1-yl]methoxy]phenyl]Propanoic Acid] |
| 1290 nM | 2460 | Cc1ccc(C2=C(COc3c(F)cc(CCC(=O)O)cc3F)CCC2)cc1[N+](=O)[O-] [Compound 109, 3-(3,5-difluoro-4-((2-(4-methyl-3-nitrophenyl)cyclopent-1-en-1-yl)methoxy)phenyl)Propanoic Acid] |
| 687 nM | 2710 | Cc1c(CCC(=O)O)ccc(OCC2=C(c3ccccc3Br)CCC2)c1C [Compound 111, 3-[4-[[2-(2-bromophenyl)cyclopenten-1-yl]methoxy]-2,3-dimethyl-phenyl]Propanoic Acid] |
| 247 nM | 397 | O=C(O)CCc1c(F)c(F)c(OCC2=C(c3ccc(Cl)cc3)CCC2)c(F)c1F [Compound 122, 3-[4-[[2-(4-chlorophenyl)cyclopenten-1-yl]methoxy]-2,3,5,6-tetrafluoro-phenyl]Propanoic Acid] |
| 67 nM | 235 | Cc1c(CCC(=O)O)ccc(OCC2=C(c3ccccc3F)CCC2)c1C [Compound 124, 3-[4-[[2-(2-fluorophenyl)cyclopenten-1-yl]methoxy]-2,3-dimethyl-phenyl]Propanoic Acid] |
| 118 nM | 566 | Cc1cc(OCC2=C(c3ccc(Cl)cc3)CCC2)ccc1CCC(=O)O [Compound 131, 3-[4-[[2-(4-chlorophenyl)cyclopenten-1-yl]methoxy]-2-methyl-phenyl]Propanoic Acid] |
| 409 nM | 1800 | Cc1ccccc1C1=C(COc2ccc(CCC(=O)O)c(C)c2C)CCC1 [Compound 132, 3-[2,3-dimethyl-4-[[2-(o-tolyl)cyclopenten-1-yl]methoxy]phenyl]Propanoic Acid] |
| 344 nM | 1130 | Cc1c(CCC(=O)O)ccc(OCC2=C(c3ccc(Cl)cc3Cl)CCC2)c1C [Compound 133, 3-[4-[[2-(2,4-dichlorophenyl)cyclopenten-1-yl]methoxy]-2,3-dimethyl-phenyl]Propanoic Acid] |
| 1430 nM | 740 | Cc1ccc(C2=C(COc3ccc(CCC(=O)O)c(C)c3C)CCC2)cc1N [Compound 134, 3-(4-((2-(3-amino-4-methylphenyl)cyclopent-1-en-1-yl)methoxy)-2,3-dimethylphenyl)Propanoic Acid] |
| 256 nM | 1230 | COc1cccc(C2=C(COc3ccc(CCC(=O)O)c(C)c3C)CCC2)c1 [Compound 141, 3-[4-[[2-(3-methoxyphenyl)cyclopenten-1-yl]methoxy]-2,3-dimethyl-phenyl]Propanoic Acid] |

| EC50 (Human GPR120 short form) | EC50 [1] [nM] | SMILES |
| --- | --- | --- |
| 336 nM | 923 | Cc1c(CCC(=O)O)ccc(OCC2=C(c3ccccn3)CCC2)c1C [Compound 147, 3-[2,3-dimethyl-4-[[2-(2-pyridyl)cyclopenten-1-yl]methoxy]phenyl]Propanoic Acid] |
| 24 nM | 90 | O=C(O)CCc1ccc(OCC2=C(c3ccc(Cl)cc3)CCC2)c(F)c1 [Compound 149, 3-[4-[[2-(4-chlorophenyl)cyclopenten-1-yl]methoxy]-3-fluoro-phenyl]Propanoic Acid] |
| 23 nM | 93 | O=C(O)CCc1ccc(OCC2=C(c3ccc(Cl)cc3)CCC2)cc1 [Compound 153, 3-[4-[[2-(4-chlorophenyl)cyclopenten-1-yl]methoxy]phenyl]Propanoic Acid] |
| 133 nM | 324 | Cc1c(CCC(=O)O)ccc(OCC2=C(c3ccc(Cl)nc3)CCC2)c1C [Compound 158, 3-(4-((2-(6-chloropyridin-3-yl)cyclopent-1-en-1-yl)methoxy)-2,3-dimethylphenyl)Propanoic Acid] |
| 26 nM | 56 | Cc1cc(CCC(=O)O)ccc1OCC1=C(c2ccc(Cl)c(F)c2)CCC1 [Compound 159, 3-(4-((2-(4-chloro-3-fluorophenyl)cyclopent-1-en-1-yl)methoxy)-3-methylphenyl)Propanoic Acid] |
| 40 nM | 104 | Cc1cc(CCC(=O)O)ccc1OCC1=C(c2ccc(Cl)cc2)CCC(F)(F)C1 [Compound 467, 3-(4-((4′-chloro-4,4-difluoro-3,4,5,6-tetrahydro-[1,1′-biphenyl]-2-yl)methoxy)-3-methylphenyl)Propanoic Acid] |
| 56 nM and 54 nM | 244 | Cc1c(CCC(=O)O)ccc(OCC2=C(c3ccc(Cl)cc3)CCC(F)(F)C2)c1C [Compound 468, 3-[4-[[2-(4-chlorophenyl)-5,5-difluoro-cyclohexen-1-yl]methoxy]-2,3-dimethyl-phenyl]Propanoic Acid] |
| 32 nM | 488 | Cc1c(CCC(=O)O)ccc(OCC2=C(c3ccccc3)CCCC2)c1C [Compound 472, 3-[2,3-dimethyl-4-[(2-phenylcyclohexen-1-yl)methoxy]phenyl]Propanoic Acid] |
| 79 nM | 1030 | Cc1c(CCC(=O)O)ccc(OCC2=C(c3ccc(Cl)cc3)CCCC2)c1C [Compound 474, 3-[4-[[2-(4-chlorophenyl)cyclohexen-1-yl]methoxy]-2,3-dimethyl-phenyl]Propanoic Acid] |
| 73 nM | 682 | O=C(O)CCc1c(F)c(F)c(OCC2=C(c3ccc(Cl)cc3)CCCC2)c(F)c1F [Compound 479, 3-[4-[[2-(4-chlorophenyl)cyclohexen-1-yl]methoxy]-2,3,5,6-tetrafluoro-phenyl]Propanoic Acid] |
| 52 nM | 155 | Cc1cc(CCC(=O)O)ccc1OCC1=C(c2ccc(Cl)cc2)CCCC1 [Compound 483, 3-[4-[[2-(4-chlorophenyl)cyclohexen-1-yl]methoxy]-3-methyl-phenyl]Propanoic Acid] |
| 37 nM | 356 | Cc1ccc(C2=C(COc3c(F)cc(CCC(=O)O)cc3F)CCCC2)cc1F [Compound 493, 3-[3,5-difluoro-4-[[2-(3-fluoro-4-methyl-phenyl)cyclohexen-1-yl]methoxy]phenyl]Propanoic Acid] |
| 37 nM | 401 | Cc1ccc(C2=C(COc3ccc(CCC(=O)O)c(F)c3F)CCCC2)cc1F [Compound 494, 3-[2,3-difluoro-4-[[2-(3-fluoro-4-methyl-phenyl)cyclohexen-1-yl]methoxy]phenyl]Propanoic Acid] |
| 81 nM | 352 | Cc1ccc(C2=C(COc3ccc(CCC(=O)O)c(C)c3C)CCCC2)cc1F [Compound 496, 3-[4-[[2-(3-fluoro-4-methyl-phenyl)cyclohexen-1-yl]methoxy]-2,3-dimethyl-phenyl]Propanoic Acid] |
| 97 nM | 191 | O=C(O)CCc1ccc(OCC2=C(c3ccc(Cl)cc3)CCC(F)(F)C2)c(F)c1F [Compound 503, 3-[4-[[2-(4-chlorophenyl)-5,5-difluoro-cyclohexen-1-yl]methoxy]-2,3-difluoro-phenyl]Propanoic Acid] |
| 414 nM | 1790 | Cc1c(CCC(=O)O)ccc(OCC2=C(c3cccc(Cl)c3)CCCC2)c1C [Compound 509, 3-[4-[[2-(3-chlorophenyl)cyclohexen-1-yl]methoxy]-2,3-dimethyl-phenyl]Propanoic Acid] |
| 33 nM | 210 | O=C(O)CCc1cc(F)c(OCC2=C(c3ccc(Cl)cc3)CCCC2)c(F)c1 [Compound 510, 3-[4-[[2-(4-chlorophenyl)cyclohexen-1-yl]methoxy]-3,5-difluoro-phenyl]Propanoic Acid] |
